Source: PubChem BioAssay AID1259407 (Chemical Carcinogenesis Research Information System (CCRIS), 2018)
Activity calls are given as the source filed them. How the calls were made is not given here.

Tested on: CCRIS mutagenicity, Ames/micronucleus/aberration tests
Test: CCRIS mutagenicity studies
[1] = Test System: AMES SALMONELLA TYPHIMURIUM, Strain/Indicator: TA98, Metabolic Activation: NONE, Method: STANDARD PLATE
[2] = Test System: AMES SALMONELLA TYPHIMURIUM, Strain/Indicator: TA98, Metabolic Activation: RAT, LIVER, S-9, AROCLOR 1254, Method: STANDARD PLATE
[3] = Test System: AMES SALMONELLA TYPHIMURIUM, Strain/Indicator: TA100, Metabolic Activation: NONE, Method: STANDARD PLATE
[4] = Test System: AMES SALMONELLA TYPHIMURIUM, Strain/Indicator: TA100, Metabolic Activation: RAT, LIVER, S-9, AROCLOR 1254, Method: STANDARD PLATE
[5] = Test System: AMES SALMONELLA TYPHIMURIUM, Strain/Indicator: TA1535, Metabolic Activation: NONE, Method: STANDARD PLATE
[6] = Test System: AMES SALMONELLA TYPHIMURIUM, Strain/Indicator: TA1535, Metabolic Activation: RAT, LIVER, S-9, AROCLOR 1254, Method: STANDARD PLATE
[7] = Test System: AMES SALMONELLA TYPHIMURIUM, Strain/Indicator: TA1538, Metabolic Activation: NONE, Method: STANDARD PLATE
[8] = Test System: AMES SALMONELLA TYPHIMURIUM, Strain/Indicator: TA1538, Metabolic Activation: RAT, LIVER, S-9, AROCLOR 1254, Method: STANDARD PLATE
[9] = Test System: E. COLI, Strain/Indicator: WP2 UVRA, Metabolic Activation: NONE, Method: STANDARD PLATE
[10] = Test System: E. COLI, Strain/Indicator: WP2 UVRA, Metabolic Activation: RAT, LIVER, S-9, AROCLOR 1254, Method: STANDARD PLATE

## c1ccc2c(c1)ccc1cc3c(ccc4ccncc43)cc12
[1]
  mutagenic call: inactive; negative
Test System: AMES SALMONELLA TYPHIMURIUM, Strain/Indicator: TA98, Metabolic Activation: RAT, LIVER, S-9, AROCLOR 1254 (10%), Method: STANDARD PLATE
  mutagenic call: active; positive
[2]
  mutagenic call: active; positive
[3]
  mutagenic call: inactive; negative
Test System: AMES SALMONELLA TYPHIMURIUM, Strain/Indicator: TA100, Metabolic Activation: RAT, LIVER, S-9, 1254 (10%), Method: STANDARD PLATE
  mutagenic call: active; positive
[4]
  mutagenic call: active; positive

## CC(=O)Oc1c2ccccc2c2ccc3cccc4ccc1c2c43
Test System: UDS RODENT PRIMARY CELLS, Strain/Indicator: THY INCORP (NON-S-PHASE), Metabolic Activation: NONE, Method: AUTORADIOGRAPHY
  mutagenic call: active; positive

## COC(=O)Nc1nc2ccc(OS(=O)(=O)c3ccc(F)cc3)cc2[nH]1
[1]
  mutagenic call: inactive; negative
[2]
  mutagenic call: inactive; negative
[3]
  mutagenic call: inactive; negative
[4]
  mutagenic call: inactive; negative
[5]
  mutagenic call: inactive; negative
[6]
  mutagenic call: inactive; negative
[7]
  mutagenic call: inactive; negative
[8]
  mutagenic call: inactive; negative
Test System: E. COLI, Strain/Indicator: WP2, Metabolic Activation: NONE, Method: STANDARD PLATE
  mutagenic call: inactive; negative
Test System: E. COLI, Strain/Indicator: WP2, Metabolic Activation: RAT, LIVER, S-9, AROCLOR 1254, Method: STANDARD PLATE
  mutagenic call: inactive; negative
Test System: E. COLI, Strain/Indicator: WP2 UVRA (PKM101), Metabolic Activation: NONE, Method: STANDARD PLATE
  mutagenic call: inactive; negative
Test System: E. COLI, Strain/Indicator: WP2 UVRA (PKM101), Metabolic Activation: RAT, LIVER, S-9, AROCLOR 1254, Method: STANDARD PLATE
  mutagenic call: inactive; negative
[9]
  mutagenic call: inactive; negative
[10]
  mutagenic call: inactive; negative

## O=C(CCCN1CCN(c2ccccn2)CC1)c1ccc(F)cc1
Test System: AMES SALMONELLA TYPHIMURIUM, Strain/Indicator: TA98, Metabolic Activation: MOUSE, LIVER, S-9, PHENOBARBITAL, Method: STANDARD PLATE
  mutagenic call: inactive; negative
[1]
  mutagenic call: inactive; negative
Test System: AMES SALMONELLA TYPHIMURIUM, Strain/Indicator: TA98, Metabolic Activation: RAT, LIVER, S-9, AROCLOR 1254, Method: PREINCUBATION
  mutagenic call: inactive; negative
[2]
  mutagenic call: inactive; negative
[3]
  mutagenic call: inactive; negative
[4]
  mutagenic call: inactive; negative
Test System: AMES SALMONELLA TYPHIMURIUM, Strain/Indicator: TA1530, Metabolic Activation: NONE, Method: STANDARD PLATE
  mutagenic call: inactive; negative
Test System: AMES SALMONELLA TYPHIMURIUM, Strain/Indicator: TA1530, Metabolic Activation: RAT, LIVER, S-9, AROCLOR 1254, Method: STANDARD PLATE
  mutagenic call: inactive; negative
[5]
  mutagenic call: inactive; negative
[6]
  mutagenic call: inactive; negative
Test System: AMES SALMONELLA TYPHIMURIUM, Strain/Indicator: TA1537, Metabolic Activation: NONE, Method: STANDARD PLATE
  mutagenic call: inactive; negative
Test System: AMES SALMONELLA TYPHIMURIUM, Strain/Indicator: TA1537, Metabolic Activation: RAT, LIVER, S-9, AROCLOR 1254, Method: STANDARD PLATE
  mutagenic call: inactive; negative
[7]
  mutagenic call: inactive; negative
[8]
  mutagenic call: inactive; negative

## C=C1C[C@@H]2CC[C@]34C[C@@H]5O[C@@H]6[C@H](O[C@H]7CC[C@H](CC(=O)O[C@@H]8[C@H](C)[C@@H]9O[C@@H]%10C[C@]%11(C[C@@H]%12O[C@@]%13(C[C@H](C)[C@@H]%12O%11)C[C@H](C)[C@@H]%11O[C@@H]([C@@H](O)C[C@H](O)CO)C[C@H]%11O%13)O[C@@H]%10C[C@@H]9O[C@H]8C[C@@H]8O[C@H](CC[C@@H]1O2)C[C@H](C)C8=C)O[C@@H]7[C@H]6O3)[C@H]5O4
Test System: Mouse lymphoma, Strain/Indicator: L5178Y (tk+/tk-), Metabolic Activation: None, Method: Suspension/plate
  mutagenic call: inactive; negative
Test System: Mouse lymphoma, Strain/Indicator: L5178Y (tk+/tk-), Metabolic Activation: Rat, Liver, S-9, Aroclor 1254, Method: Suspension/plate
  mutagenic call: active; equivocal (previous evaluation positive)

## COc1ccc(N)c(C)c1
Test System: AMES SALMONELLA TYPHIMURIUM, Strain/Indicator: TA98, Metabolic Activation: HAMSTER, LIVER, S-9, AROCLOR 1254 (30%), Method: PREINCUBATION
  mutagenic call: inactive; negative
Test System: AMES SALMONELLA TYPHIMURIUM, Strain/Indicator: TA98, Metabolic Activation: NONE, Method: PREINCUBATION
  mutagenic call: inactive; negative
Test System: AMES SALMONELLA TYPHIMURIUM, Strain/Indicator: TA98, Metabolic Activation: RAT, LIVER, S-9, AROCLOR 1254 (30%), Method: PREINCUBATION
  mutagenic call: inactive; negative
Test System: AMES SALMONELLA TYPHIMURIUM, Strain/Indicator: TA100, Metabolic Activation: HAMSTER, LIVER, S-9, AROCLOR 1254 (30%), Method: PREINCUBATION
  mutagenic call: active; positive
Test System: AMES SALMONELLA TYPHIMURIUM, Strain/Indicator: TA100, Metabolic Activation: NONE, Method: PREINCUBATION
  mutagenic call: inactive; negative
Test System: AMES SALMONELLA TYPHIMURIUM, Strain/Indicator: TA100, Metabolic Activation: RAT, LIVER, S-9, AROCLOR 1254 (30%), Method: PREINCUBATION
  mutagenic call: inactive; negative
Test System: E. COLI, Strain/Indicator: WP2 UVRA, Metabolic Activation: HAMSTER, LIVER, S-9, AROCLOR 1254, Method: STANDARD PLATE
  mutagenic call: inactive; negative
Test System: E. COLI, Strain/Indicator: WP2 UVRA, Metabolic Activation: HAMSTER, LIVER, S-9, Method: STANDARD PLATE
  mutagenic call: inactive; negative
Test System: E. COLI, Strain/Indicator: WP2 UVRA, Metabolic Activation: MOUSE, LIVER, S-9, AROCLOR 1254, Method: STANDARD PLATE
  mutagenic call: inactive; negative
Test System: E. COLI, Strain/Indicator: WP2 UVRA, Metabolic Activation: MOUSE, LIVER, S-9, Method: STANDARD PLATE
  mutagenic call: inactive; negative
[9]
  mutagenic call: inactive; negative
[10]
  mutagenic call: inactive; negative
Test System: E. COLI, Strain/Indicator: WP2 UVRA, Metabolic Activation: RAT, LIVER, S-9, Method: STANDARD PLATE
  mutagenic call: inactive; negative

## N#C/C(=C/C=C/c1ccccc1[N+](=O)[O-])c1ccc(Br)cc1
Test System: AMES SALMONELLA TYPHIMURIUM, Strain/Indicator: TA97A, Metabolic Activation: NONE, Method: STANDARD PLATE
  mutagenic call: active; positive
[3]
  mutagenic call: active; positive

## CC1(C)C[C@@H]2[C@@]3(C(=O)O)C[C@@]3(C=O)C(C=O)=C[C@]2(O)C1
Test System: CHINESE HAMSTER V-79, Strain/Indicator: V-79/6-THIOGUANINE (HGPRT), Metabolic Activation: NONE
  mutagenic call: inactive; negative

## CCC(C)(C)c1cc(-n2nc3ccccc3n2)c(O)c(C(C)(C)CC)c1
Test System: AMES SALMONELLA TYPHIMURIUM, Strain/Indicator: TA97, Metabolic Activation: NONE, Method: STANDARD PLATE
  mutagenic call: inactive; negative
Test System: AMES SALMONELLA TYPHIMURIUM, Strain/Indicator: TA97, Metabolic Activation: S-9, Method: STANDARD PLATE
  mutagenic call: inactive; negative
[1]
  mutagenic call: inactive; negative
Test System: AMES SALMONELLA TYPHIMURIUM, Strain/Indicator: TA98, Metabolic Activation: S-9, Method: STANDARD PLATE
  mutagenic call: inactive; negative
[3]
  mutagenic call: inactive; negative
Test System: AMES SALMONELLA TYPHIMURIUM, Strain/Indicator: TA100, Metabolic Activation: S-9, Method: STANDARD PLATE
  mutagenic call: inactive; negative
Test System: AMES SALMONELLA TYPHIMURIUM, Strain/Indicator: TA102, Metabolic Activation: NONE, Method: STANDARD PLATE
  mutagenic call: inactive; negative
Test System: AMES SALMONELLA TYPHIMURIUM, Strain/Indicator: TA102, Metabolic Activation: S-9, Method: STANDARD PLATE
  mutagenic call: inactive; negative
Test System: E.COLI, Strain/Indicator: WP2 (PKM101), Metabolic Activation: NONE, Method: STANDARD PLATE
  mutagenic call: inactive; negative
Test System: E.COLI, Strain/Indicator: WP2 (PKM101), Metabolic Activation: S-9, Method: STANDARD PLATE
  mutagenic call: inactive; negative

## COc1ccc(CN(C)N=O)cc1
Test System: AMES SALMONELLA TYPHIMURIUM, Strain/Indicator: TA1535, Metabolic Activation: HAMSTER, LIVER, S-9, AROCLOR 1254, Method: STANDARD PLATE
  mutagenic call: inactive; negative
[5]
  mutagenic call: inactive; negative
